The target of this assay is T1, P2X4 receptor (Homo sapiens, UniProt Q99571).
T1 construct: expressed in transfected cells; host or cells: 1321N1 astrocytoma cells, retroviral vector pQCXIN, G418 selection, monoclones
T1 sequence (Q99571 1-388): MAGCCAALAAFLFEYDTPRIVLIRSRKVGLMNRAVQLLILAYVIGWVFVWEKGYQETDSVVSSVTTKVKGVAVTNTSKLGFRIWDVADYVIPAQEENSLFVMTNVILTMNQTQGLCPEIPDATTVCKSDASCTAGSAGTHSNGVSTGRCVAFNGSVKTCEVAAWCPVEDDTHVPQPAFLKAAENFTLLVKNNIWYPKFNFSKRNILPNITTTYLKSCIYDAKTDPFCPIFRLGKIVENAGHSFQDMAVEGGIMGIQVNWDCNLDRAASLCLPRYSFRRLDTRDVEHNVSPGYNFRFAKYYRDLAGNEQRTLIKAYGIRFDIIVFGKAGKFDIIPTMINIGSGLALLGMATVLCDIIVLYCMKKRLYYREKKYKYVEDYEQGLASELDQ
As to the kind of experiment: Measurement of Ca2+ influx in transfected 1321N1 astrocytoma cells (P2X4 inhibitory potency). Format: cell-based. The following applies: agonist-mediated Ca2+ influx, FLUO-4, 1321N1 astrocytoma cells; antagonists added 30 min before agonist. The gist of the method:
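Stable 1321N1 astrocytoma cells expressing human P2X4, loaded with FLUO-4 AM (2.4 μM) in HBSS/HEPES pH 7.3 for 1 h at 23 °C. Antagonists added 30 min before agonist; fluorescence at 520 nm recorded for 30 s. Compounds tested at 7–8 concentrations spanning three log units.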

Each structure is given as a SMILES string.

Usually IC50 stands for the concentration at which inhibition is half-maximal. `COc1ccc(-c2nc(C)ns2)cc1NCC(=O)c1c[nH]c2c(OC)cccc12` [Example 93, 1-(7-methoxy-1H-indol-3-yl)-2-((2-methoxy-5-(3-methyl-1,2,4-thiadiazol-5-yl)phenyl)-amino)ethan-1-one] yielded an IC50 of 0.1 to 19 nM.
Under `COc1cc2[nH]cc(C(=O)CNc3cc(-c4nc(C)ns4)ccc3OC)c2cc1F` [Example 94, 1-(5-fluoro-6-methoxy-1H-indol-3-yl)-2-((2-methoxy-5-(3-methyl-1,2,4-thiadiazol-5-yl)phenyl)amino)ethan-1-one] stands 0.1 to 19 nM; under `COc1ccc2c(C(=O)CNc3cc(-c4nc(C)ns4)ccc3C)c[nH]c2n1` [Example 95, 1-(6-methoxy-1H-pyrrolo[2,3-b]pyridin-3-yl)-2-((2-methyl-5-(3-methyl-1,2,4-thiadiazol-5-yl)phenyl)amino)ethan-1-one], 0.1 to 19 nM.
The result for `CCc1noc(-c2ccc(OC)c(NCC(=O)c3c[nH]c4cc(OC)ccc34)c2)n1` [Example 96, 2-((5-(3-ethyl-1,2,4-oxadiazol-5-yl)-2-methoxyphenyl)amino)-1-(6-methoxy-1H-indol-3-yl)ethan-1-one] reads 0.1 to 19 nM; that for `CCc1noc(-c2ccc(OC)c(NCC(=O)c3c[nH]c4cc(OC)c(F)cc34)c2)n1` [Example 97, 2-((5-(3-ethyl-1,2,4-oxadiazol-5-yl)-2-methoxyphenyl)amino)-1-(5-fluoro-6-methoxy-1H-indol-3-yl) ethan-1-one], 0.1 to 19 nM; that for `CCc1noc(-c2ccc(OC)c(NCC(=O)c3cn(C)c4cc(OC)c(F)cc34)c2)n1` [Example 98, 2-((5-(3-ethyl-1,2,4-oxadiazol-5-yl)-2-methoxyphenyl)amino)-1-(5-fluoro-6-methoxy-1-methyl-1H-indol-3-yl) ethan-1-one], 0.1 to 19 nM.
`Cc1nsc(-c2ccc(C)c(NCC(=O)c3cn4c5c(cccc35)C(=O)NCC4)c2)n1` [Example 99, 7-((2-methyl-5-(3-methyl-1,2,4-thiadiazol-5-yl)phenyl)glycyl)-3,4-dihydro-[1,4]diazepino[6,7,1-hi] indol-1(2H)-one] displayed an IC50 of 20 to 39 nM.
Under `Cc1nsc(-c2ccc(C)c(NCC(=O)c3c[nH]c4ncccc34)c2)n1` [Example 100, 2-((2-methyl-5-(3-methyl-1,2,4-thiadiazol-5-yl)phenyl)amino)-1-(1H-pyrrolo [2,3-b]pyridin-3-yl) ethan-1-one] stands 20 to 39 nM; under `COc1cc2[nH]cc(C(=O)CNc3cc(-c4nc(C)ns4)cc(F)c3OC)c2cc1F` [Example 101, 2-((3-fluoro-2-methoxy-5-(3-methyl-1,2,4-thiadiazol-5-yl)phenyl)amino)-1-(5-fluoro-6-methoxy-1H-indol-3-yl)ethan-1-one], 20 to 39 nM; under `Cc1nsc(-c2ccc(C)c(NCC(=O)c3c[nH]c4ccccc34)c2)n1` [Example 102, 1-(1H-indol-3-yl)-2-((2-methyl-5-(3-methyl-1,2,4-thiadiazol-5-yl)phenyl)amino)ethan-1-one], 20 to 39 nM.
The result for `Cc1nsc(-c2ccc(C)c(NCC(=O)c3cn4c5c(cccc35)CCC4)c2)n1` [Example 103, 1-(5,6-dihydro-4H-pyrrolo[3,2,1-ij]quinolin-1-yl)-2-((2-methyl-5-(3-methyl-1,2,4-thiadiazol-5-yl)phenyl)amino)ethan-1-one] reads 20 to 39 nM.
`COc1ccc(-c2nc(C)ns2)cc1NCC(=O)c1c[nH]c2c3c(ccc12)CCC3` [Example 104, 2-((2-methoxy-5-(3-methyl-1,2,4-thiadiazol-5-yl)phenyl)amino)-1-(1,6,7,8-tetrahydrocyclopenta[g]indol-3-yl)ethan-1-one]: the IC50 was 20 to 39 nM.
Under `Cc1nsc(-c2ccc(C)c(NCC(=O)c3cn4c5c(cccc35)OCC(C)(O)C4)c2)n1` (stereo not drawn) [Example 105, 1-(3-hydroxy-3-methyl-3,4-dihydro-2H-[1,4]oxazepino[2,3,4-hi]indol-7-yl)-2-((2-methyl-5-(3-methyl-1,2,4-thiadiazol-5-yl)phenyl)-amino)ethan-1-one] stands 20 to 39 nM.
The result for `Cc1nc(-c2ccc(C)c(NCC(=O)c3c[nH]c4ccccc34)c2)no1` [Example 106, 1-(1H-indol-3-yl)-2-((2-methyl-5-(5-methyl-1,2,4-oxadiazol-3-yl)phenyl)amino)ethan-1-one] reads 40 to 69 nM; that for `CCc1noc(-c2cc(NCC(=O)c3c[nH]c4cc(OC)c(Br)cc34)c(OC)cc2Br)n1` [Example 108, 2-(4-bromo-5-(3-ethyl-1,2,4-oxadiazol-5-yl)-2-methoxyphenylamino)-1-(5-bromo-6-methoxy-1H-indol-3-yl) ethanone], 70 to 99 nM.
The result for `CCc1noc(-c2cc(NCC(=O)c3c[nH]c4cc(OC)ccc34)c(OC)cc2Br)n1` [Example 109, 2-((4-bromo-5-(3-ethyl-1,2,4-oxadiazol-5-yl)-2-methoxy-phenyl)amino)-1-(6-methoxy-1H-indol-3-yl)ethan-1-one] reads 40 to 69 nM; that for `COc1nccc2c(C(=O)CNc3cc(-c4nc(C)ns4)ccc3C)c[nH]c12` [Example 110, 1-(7-methoxy-1H-pyrrolo[2,3-c]pyridin-3-yl)-2-((2-methyl-5-(3-methyl-1,2,4-thiadiazol-5-yl)phenyl)amino) ethan-1-one], 20 to 39 nM; that for `CCc1noc(-c2ccc(C)c(NCC(=O)c3cn(C)c4ccccc34)c2)n1` [Example 111, 2-((5-(3-ethyl-1,2,4-oxadiazol-5-yl)-2-methylphenyl)amino)-1-(1-methyl-1H-indol-3-yl)ethan-1-one], 40 to 69 nM.
For the molecule `Cc1nsc(-c2ccc(C)c(NCC(=O)c3c[nH]c4c(C(C)O)cccc34)c2)n1` (stereo not drawn) [Example 112, 1-(7-(1-hydroxyethyl)-1H-indol-3-yl)-2-((2-methyl-5-(3-methyl-1,2,4-thiadiazol-5-yl)phenyl)amino)ethan-1-one], the IC50 lay in the range of 0.1 to 19 nM.
In turn, `Cc1ccc(-c2ccc(C(C)C)cn2)cc1NCC(=O)N1CCc2c(OCCOCCO)cccc21` [Example 113, 1-(4-(2-(2-hydroxyethoxy)ethoxy)indolin-1-yl)-2-((5-(5-isopropylpyridin-2-yl)-2-methylphenyl)amino) ethan-1-one] showed an IC50 of 40 to 69 nM.
The result for `Cc1ccc(-c2ccc(C3CC3)cn2)cc1NCC(=O)N1CCc2c(OCC(C)(C)O)cccc21` [Example 114, 2-((5-(5-cyclopropyl-pyridin-2-yl)-2-methyl-phenyl)amino)-1-(4-(2-hydroxy-2-methyl-propoxy)indolin-1-yl) ethan-1-one] reads 40 to 69 nM; that for `Cc1ccc(-c2ccc(Cl)cn2)cc1NCC(=O)N1CCc2c(OCC(C)(C)O)cccc21` [Example 115, 2-((5-(5-chloropyridin-2-yl)-2-methylphenyl)amino)-1-(4-(2-hydroxy-2-methyl-propoxy)-indolin-1-yl)ethan-1-one], 40 to 69 nM.
Molecule `Cc1ccc(-c2ccc(C)c(NCC(=O)N3CCc4c(CO)cccc43)c2)nc1` [Example 116, 1-(4-(hydroxymethyl)indolin-1-yl)-2-((2-methyl-5-(5-methylpyridin-2-yl)phenyl)amino)ethan-1-one] displayed an IC50 of 70 to 99 nM.
Under `Cc1ccc(-c2ccc(C)c(NCC(=O)N3CCc4c(OCC(C)(C)O)cccc43)c2)nc1` [Example 117, 1-(4-(2-hydroxy-2-methylpropoxy)indolin-1-yl)-2-((2-methyl-5-(5-methylpyridin-2-yl)phenyl)amino)ethan-1-one] stands 40 to 69 nM.

Source of the values: US20260209215A1, “GLYCINE DERIVATIVES WITH P2X4 RECEPTOR-BLOCKING ACTIVITY AS DIAGNOSTICS AND FOR THE TREATMENT OF PAIN, INFLAMMATION, CANCER, AND OTHER P2X4 RECEPTOR-RELATED DISEASES” (RHEINISCHE-FRIEDRICH-WILHELMS-UNIVERSITÄT BONN, priority 2022, published 2026).
